# Measurements reported in US20140248634A1, “VIMENTIN AS A BIOMARKER FOR THE PROGRESSION OF MYELOPROLIFERATIVE NEOPLASMS” (University of Florida Research Foundation, priority 2011, published 2014).
# Entries after “also recorded” stand apart in the source; their conditions may differ. Starred links: 1 amine or outer side, 2 acyl side, 3 side chain; linkers in the order of their positions; H or OH if unused. Non-standard residues stand in square brackets, D forms with d. Residues, ends and D or L forms follow the SMILES beside them. *: point of attachment. hPhe = N[C@@H](CCc1ccccc1)C(=O)O; Morpholide = C1CN(*)CCO1; Cbz = O=C(OCc1ccccc1)*; CO = O=C([*:1])[*:2]; CH2F = FC*
# Experiments:
# vimentin [1] = test: Western blotting of HEL cell lysates with anti-vimentin antibody; type: cell-based, human; conditions: HEL cells; for effect on full-length vimentin, Jak2 vs non-Jak2 inhibitors: increasing concentrations; for cleavage of vimentin intermediate filaments in the viability samples: 30 μM G6 or 2% IDPN, 0, 6, 12, 24 or 48 hours
# Description: Protein concentrations in the whole cell lysates were determined using a Bradford assay (Bio-Rad). Cell lysates were then resuspended in SDS sample buffer. Whole cell lysates (˜30 μg) were separated by SDS-PAGE and then transferred onto nitrocellulose membranes for analysis by western blotting.
# (§1) Nitrocellulose membranes were first blocked with 5% milk/TBST solution at room temperature and then probed first with the different indicated primary antibodies overnight at 4° C. followed by the respective secondary antibodies (1:4000, GE Healthcare). The immuno-reactive bands were then visualized using the enhanced chemiluminescence system (Western Lightning Ultra, Perkin-Elmer). The following antibodies were used at the indicated dilutions: vimentin (Abcam and BD Biosciences, each at 1:500), STAT1 (Santa Cruz Biotechnology, 1:1000), and β-actin (Cell Signaling, 1:500).
# HEL cells = test: Cell proliferation assay (trypan blue exclusion, hemocytometer); type: cell-based, human; conditions: 30 μM G6 or 2% IDPN, 0, 6, 12, 24 or 48 hours, vs DMSO
# Description: HEL cells were plated in 96-well plates and treated with either 0.25% DMSO, 30 μM G6 or 2% IDPN for the indicated periods of time. Cell viability was then assessed for each sample by trypan blue exclusion staining and hemocytometer.
# PARP = test: Western blotting of HEL cell lysates for PARP cleavage; type: cell-based, human; conditions: HEL cells, pretreated 4 hours, then 30 μM and 60 μM G6 for 24 hours
# Description: Cells (˜107) were washed with two volumes of ice-cold PBS and then lysed in 0.8 ml of ice-cold RIPA buffer (20 mM Tris pH 7.5, 10% glycerol, 1% Triton X-100, 1% deoxycholic acid, 0.1% SDS, 2.5 mM EDTA, 50 mM NaF, 10 mM Na4P2O7, 4 mM benzamidine, and 10 μg/mL aprotinin). Protein concentrations in the whole cell lysates were determined using a Bradford assay (Bio-Rad). Cell lysates were then resuspended in SDS sample buffer. Whole cell lysates (˜30 μg) were separated by SDS-PAGE and then transferred onto nitrocellulose membranes for analysis by western blotting.
# as §1
# [2] = test system: Jak2-V617F-mediated HEL cell proliferation; conditions: previously demonstrated (14,15); cited from earlier work
# caspase 3/7 = conditions: HEL cells, previously showed (15); cited from earlier work
# vimentin protein = test: Xenograft model of Jak2-V617F expressing HEL cells in NOD/SCID mice, bone marrow anti-vimentin immunohistochemistry; type: in vivo; conditions: NOD/SCID mice with HEL cells, 21 days
# Source text: The xenograft model of Jak2-V617F expressing HEL cells in NOD/SCID mice has been described previously (15). Briefly, 3 months old NOD/SCID mice were randomized into 5 groups (n=6 per group). […] All other groups received a single tail vein injection of 2×10^6 Jak2-V617F positive HEL cells. Three weeks after HEL cell injection, the mice developed symptoms of a fully penetrant bone marrow malignancy. The mice then began receiving intraperitoneal injections of either vehicle control (DMSO) or G6 at doses of 0.1, 1, and 10 mg/kg/day for the next 21 days. At the end of the three week treatment period, all groups of mice were euthanized and bone marrow tissues were fixed in 10% neutral-buffered formalin and embedded in paraffin.
# Paraffin embedded bone marrow sections from each treatment group were analyzed by antivimentin immunohistochemistry. Antigen retrieval was carried out first by microwaving at 95° C. for 20 min in 1 mM EDTA-NaOH solution, pH 8.0. The section were then cooled, blocked with Protein Block (DAKO), and incubated with antivimentin antibody (Abcam, 1:100) for 2 hours at room temperature. Antigen-antibody comeplexes were detected using biotinylated secondary antibodies and streptavidin-peroxidase substrate (DAKO). Stained sections were then analyzed via a standard light microscope (Nikon) at 40× and 100× magnifications.
# vimentin [3] = test: 2-D differential in gel electrophoresis (2-D DIGE) of HEL cell proteins; type: cell-based, human; conditions: HEL cells, 25 μM, 12 hours, vs 0.25% DMSO
# Description: HEL cells treated either with vehicle control DMSO or 25 μM G6 for 12 hours. The cell pellets were resuspended in ice cold buffer containing 0.3% SDS, 20 mM Tris pH 8.0, 100 mM DTT, 10 μl protease inhibitor cocktail III (Calbiochem), 5 mM MgCl2 and 250 units of benzonase. The cell suspension was homogenized by sonication. Protein was precipitated with 9 volumes of ice cold 10% trichloroacetic acid (TCA) in acetone overnight at 4° C. Precipitated proteins were then dissolved in solubilization buffer (7 M urea, 2 M thiourea, 4% CHAPS, 0.2% SDS and 20 mM Tris, pH 8.0). After centrifugation at 43,000 rpm for 30 min, solubilized protein in the supernatant was quantified using the EZQ Protein Assay Kit (Invitrogen). Proteins (100 μg per sample) were minimally labeled with CyDye (GE Healthcare) as per the manufacturer's protocol. An internal standard, which is loaded on every gel, was created by mixing equal amounts of protein from all samples. Proteins from the DMSO treated samples were labeled with Cy3 (green) and the G6 treated samples were labeled with Cy5 (red). The internal standard was labeled with Cy2 (blue). […] The digital image was then analyzed with DeCyder 2D version 7.0 GE Healthcare). Information from replicate gels was analyzed with BVA Module (Biological Variation Analysis). […]
# [4] = test system: vimentin intermediate filaments; test: Indirect immunofluorescence of vimentin in HEL cells; type: cell-based, human; conditions: 25 μM, 24 and 36 hr
# Description: HEL cells were cultured in RPMI in 100 mm dishes and treated with 25 μM G6 for the indicated periods of time. Following treatment, the cells were centrifuged, washed and resuspended in 1×PBS. Cells were then plated onto poly-L-lysine coated 8-chamber slides (Santa Cruz Biotechnology) and fixed at −20° C. in a mixture of 50% methanol and 50% acetone for 10 minutes. The fixed cells were then permeabilized with 0.2% Triton X-100 and blocked with 5% goat serum for 30 minutes at room temperature. The samples were then incubated overnight at 4° C. with a primary antibody of mouse anti-vimentin (BD Biosciences, 1:100). The next day, the cells were washed 4× with PBS at room temperature. The samples were then incubated with a FITC-conjugated anti-mouse secondary antibody (Santa Cruz Biotechnology) for one hour at room temperature. The cells were again washed with PBS, mounted with UltraCruz DAPI containing mounting media (Santa Cruz Biotechnology) and sealed with a cover slip. These cells were imaged using a 100× objective on an inverted fluorescence microscope (Olympus).
molecule,measurement,setting,value
CNc1ccc2oc(C[C@H]3O[C@@]4(CC[C@H]3C)O[C@H]([C@H](C)C(=O)c3ccc[nH]3)[C@H](C)C[C@H]4C)nc2c1C(=O)O [Compound A23187],cleavage of vimentin,"vimentin [1]; 10 μM, increasing periods of time",sufficient to induce cleavage of intermediate filament protein vimentin
N#C/C(=C/c1ccc(O)c(O)c1)C(=O)NCc1ccccc1 [AG490],"effect on full-length vimentin, Jak2 vs non-Jak2 inhibitors",vimentin [1]; 24 hours,induced cleavage of vimentin dose-dependently
"N#CCCNCCC#N [IDPN, 3′,3′-iminodipropiontrile, reference compound]",viable cell numbers,HEL cells,time dependently decreased viable cell numbers
same,cleavage of vimentin intermediate filaments in the viability samples,vimentin [1],time-dependent cleavage of vimentin intermediate filaments
CC(C)(C)n1nc(-c2ccc(Cl)cc2)c2c(N)ncnc21 [PP2],"effect on full-length vimentin, Jak2 vs non-Jak2 inhibitors",vimentin [1]; 24 hours,no effect on full-length vimentin
C[C@@H]1C[C@@H]([C@H](O)CC2CC(=O)NC(=O)C2)C(=O)[C@@H](C)C1 [cycloheximide],effect of pretreatment on G6-induced cleavage of vimentin,"vimentin [1]; cycloheximide pretreatment 4 h, then increasing concentrations of G6 for 24 hours",not be blocked by pretreatment with cycloheximide
"CC(C)[C@H](NC(=O)N1CCOCC1)C(=O)N[C@@H](CCc1ccccc1)C(=O)CF [Calpain Inhibitor V, Mu-Val-HPh-CH2F] ({Morpholide-CO}-Val-[hPhe]-CH2F)",effect of pretreatment on G6-induced cleavage of vimentin,"vimentin [1]; calpain inhibitor pretreatment 4 hours, then increasing doses of G6 for 24 hours",prevented G6-induced cleavage of vimentin in a dose-dependent manner
CC(=O)OCOC(=O)CN(CC(=O)OCOC(C)=O)c1ccccc1OCCOc1ccccc1N(CC(=O)OCOC(C)=O)CC(=O)OCOC(C)=O [BAPTA-AM],effect of pretreatment on G6-induced cleavage of vimentin,"vimentin [1]; 10 μM BAPTA-AM 2 hours, then 30 μM G6 for 24 hours",sufficient to protect vimentin from G6-induced cleavage
"COC(=O)C[C@H](NC(=O)[C@H](C)NC(=O)[C@@H](NC(=O)OCc1ccccc1)C(C)C)C(=O)CF [zVAD-fmk, Z-VAD (OMe)-FMK] (Cbz-Val-Ala-Asp(OMe)-CH2F)",effect of pretreatment on G6-induced cleavage of PARP,PARP,able to block the G6-induced cleavage of PARP
same,effect of pretreatment on G6-induced cleavage of vimentin,"vimentin [1]; pretreated 4 hours, then 30 μM and 60 μM G6 for 24 hours",unable to prevent G6-induced cleavage of vimentin
"CCC(=C(CC)c1ccc(O)c(CN(CC)CC)c1)c1ccc(O)c(CN(CC)CC)c1 [Compound G6, 4,4′-(hex-3-ene-3,4-diyl)bis(2-((diethylamino)methyl)phenol)]",Jak2-V617F-mediated HEL cell proliferation,[2],inhibits Jak2-V617F-mediated HEL cell proliferation
same,apoptosis of HEL cells,[2],induces apoptosis
same,caspase 3/7 activation,caspase 3/7,causes caspase 3/7 activation in a time-dependent manner
same,bone marrow vimentin protein level vs DMSO treated mice,vimentin protein; 0.1 mg/kg/day intraperitoneal,did not produce any observable change
same,bone marrow vimentin protein level vs DMSO treated mice,vimentin protein; 1 mg/kg/day intraperitoneal,clearly reduced the levels of vimentin protein
same,bone marrow vimentin protein level vs DMSO treated mice,vimentin protein; 10 mg/kg/day intraperitoneal,clearly reduced the levels of vimentin protein
same,vimentin protein expression (2-D DIGE),vimentin [3],down regulated; also recorded: significantly downregulated
same,cellular distribution of vimentin,[4],aggregated/localized in the perinuclear region of the cell
same,viable cell numbers,HEL cells,time dependently decreased viable cell numbers
same,full-length vimentin (western blot),"vimentin [1]; 25 μM, 24 h, vs DMSO",disappearance of full-length vimentin
same,cleavage of full-length vimentin as a function of time,"vimentin [1]; 25 μM, varying lengths of time",cleaved into low molecular weight fragments
same,cleavage of vimentin intermediate filaments in the viability samples,vimentin [1],time-dependent cleavage of vimentin intermediate filaments
same,"effect on full-length vimentin, Jak2 vs non-Jak2 inhibitors",vimentin [1]; 24 hours,induced cleavage of vimentin dose-dependently
same,cleavage of full-length vimentin as a function of dose,"vimentin [1]; increasing doses, 24 hours",cleaved into low molecular weight fragments
same,specificity for vimentin over other cytoskeletal proteins (β-actin reprobe),vimentin [1]; same samples reprobed with anti-β-actin antibody,specificity of G6 for vimentin over other cytoskeletal proteins such as β-actin
COc1cccc(-c2cc(=O)c3ccccc3o2)c1N [PD98059],"effect on full-length vimentin, Jak2 vs non-Jak2 inhibitors",vimentin [1]; 24 hours,no effect on full-length vimentin
Jak Inhibitor I,"effect on full-length vimentin, Jak2 vs non-Jak2 inhibitors",vimentin [1]; 24 hours,induced cleavage of vimentin dose-dependently
